The source made the active and inactive calls. The rule behind the calls is not given here.
Legend:
[1] = tested on: Candida albicans; assay: Induction of neutrophil-mediated antifungal immunity against Candida albicans SC5314 infected in mouse assessed as reduction in PD-L1 positive Ly6G positive neutrophils in kidney at 50 to 100 mg/kg, po administered once a day for 3 days by flow cytometry analysis; format: functional, organism-based; settings: dose 50-100 mg/kg, time 3.0 day
[2] = tested on: Neutrophil; assay: Induction of apoptosis in mouse neutrophils assessed as dead cells at 20 uM incubated for 16 hrs by Annexin V-FITC/PI staining based flow cytometry analysis (reference value: 2.04%); format: toxicity, cell-based
[3] = tested on: Candida albicans; assay: Induction of neutrophil-mediated antifungal immunity against Candida albicans SC5314 infected in cyclophosphamide-induced immunosuppressed C57BL/6 mouse at 50 to 100 mg/kg, po pretreated with CTX for 3 days followed by fungal infection and further administered with compound once a day for 3 days; format: functional, organism-based; settings: dose 50-100 mg/kg, time 3.0 day
[4] = AUC (0 to t) in male Sprague-Dawley rat at 10 mg/kg, po by LC-MS/MS analysis; format: ADME, organism-based; settings: in vivo
[5] = Cmax in male Sprague-Dawley rat at 10 mg/kg, po by LC-MS/MS analysis; format: ADME, organism-based; settings: in vivo
[6] = Subacute toxicity in C57BL/6 mouse assessed as histopathological changes in kidney at 100 mg/kg, po administered daily for 14 days; format: organism-based; settings: in vivo, 336 h, time 14 day
[7] = tested on: Candida albicans; assay: Induction of neutrophil-mediated antifungal immunity against Candida albicans SC5314 infected in mouse assessed as reduction in PD-L1 positive Ly6G positive neutrophils in bone marrow at 50 to 100 mg/kg, po administered once a day for 3 days by flow cytometry analysis; format: functional, organism-based; settings: dose 50-100 mg/kg, time 3.0 day
[8] = tested on: Neutrophil; assay: Downregulation of phosphorylated STAT3 protein level at Ser727 residue in curdlan induced mouse bone marrow neutrophils at 40 uM measured upto 60 mins by Western blot analysis; format: functional, cell-based
[9] = Acute toxicity in C57BL/6 mouse assessed as effect on urea level in serum at 500 mg/kg, po administered as single dose and measured every day for 14 days; format: organism-based; settings: in vivo, 336 h, time 14 day
[10] = Acute toxicity in C57BL/6 mouse assessed as effect on AST level in serum at 500 mg/kg, po administered as single dose and measured every day for 14 days; format: organism-based; settings: in vivo, 336 h, time 14 day
[11] = MRT (0 to t) in male Sprague-Dawley rat at 2 mg/kg, iv by LC-MS/MS analysis; format: ADME, organism-based; settings: in vivo
[12] = Acute toxicity in C57BL/6 mouse assessed as change in spleen weight at 500 mg/kg, po administered as single dose and measured after 14 days; format: organism-based; settings: in vivo, 336 h, time 14 day
[13] = tested on: Candida albicans; assay: Induction of neutrophil-mediated antifungal immunity against Candida albicans SC5314 infected in mouse assessed as reduction in accumulation of Ly6G positive neutrophils in bone marrow at 50 to 100 mg/kg, po administered once a day for 3 days; format: functional, organism-based; settings: dose 50-100 mg/kg, time 3.0 day
[14] = Subacute toxicity in C57BL/6 mouse assessed as change in heart weight at 100 mg/kg, po administered daily for 14 days; format: organism-based; settings: in vivo, 336 h, time 14 day
[15] = Subacute toxicity in C57BL/6 mouse assessed as abnormal behavior at 100 mg/kg, po administered daily for 14 days and measured every day; format: organism-based; settings: in vivo, 336 h, time 14 day
[16] = Subacute toxicity in C57BL/6 mouse assessed as change in kidney weight at 100 mg/kg, po administered daily for 14 days; format: organism-based; settings: in vivo, 336 h, time 14 day
[17] = Oral bioavailability in male Sprague-Dawley rat at 10 mg/kg by LC-MS/MS analysis; format: ADME, organism-based; settings: in vivo
[18] = Subacute toxicity in C57BL/6 mouse assessed as histopathological changes in spleen at 100 mg/kg, po administered daily for 14 days; format: organism-based; settings: in vivo, 336 h, time 14 day
[19] = Acute toxicity in C57BL/6 mouse assessed as change in kidney weight at 500 mg/kg, po administered as single dose and measured after 14 days; format: organism-based; settings: in vivo, 336 h, time 14 day
[20] = Subacute toxicity in C57BL/6 mouse assessed as change in liver weight at 100 mg/kg, po administered daily for 14 days; format: organism-based; settings: in vivo, 336 h, time 14 day
[21] = tested on: Neutrophil; assay: Induction of apoptosis in mouse neutrophils assessed as early apoptotic cells at 40 uM incubated for 16 hrs by Annexin V-FITC/PI staining based flow cytometry analysis (reference value: 26.9%); format: toxicity, cell-based
[22] = tested on: Polymorphonuclear neutrophil; assay: Inhibition of fungal curdlan induced CXCL2 protein expression in mouse polymorphonuclear neutrophils at 40 uM incubated for 4 hrs by ELISA; format: functional, cell-based
[23] = Subacute toxicity in C57BL/6 mouse assessed as change in spleen weight at 100 mg/kg, po administered daily for 14 days; format: organism-based; settings: in vivo, 336 h, time 14 day
[24] = AUC (0 to infinity) in male Sprague-Dawley rat at 2 mg/kg, iv by LC-MS/MS analysis; format: ADME, organism-based; settings: in vivo
[25] = Induction of apoptosis in mouse neutrophils assessed as live cells at 20 uM incubated for 16 hrs by Annexin V-FITC/PI staining based flow cytometry analysis (reference value: 46.6%); format: toxicity, cell-based, Neutrophil; settings: read-out: Activity
[26] = Potency index, ratio of test compound IC50 to ACT001 IC50 for cytotoxicity against mouse neutrophils assessed as reduction in cell viability incubated for 16 hrs by flow cytometry analysis; format: toxicity, cell-based, Neutrophil; settings: read-out: Ratio IC50
[27] = Cmax in male Sprague-Dawley rat at 2 mg/kg, iv by LC-MS/MS analysis; format: ADME, organism-based; settings: in vivo
[28] = tested on: Candida albicans; assay: Induction of neutrophil-mediated antifungal immunity against Candida albicans SC5314 infected in mouse assessed as inhibition of CXCL1 protein expression in bone marrow at 50 to 100 mg/kg, po administered once a day for 3 days by ELISA; format: functional, organism-based; settings: dose 50-100 mg/kg, time 3.0 day
[29] = Half life in male Sprague-Dawley rat at 2 mg/kg, iv by LC-MS/MS analysis; format: ADME, organism-based; settings: in vivo
[30] = Acute toxicity in C57BL/6 mouse assessed as histopathological changes in heart at 500 mg/kg, po administered as single dose and measured after 14 days; format: organism-based; settings: in vivo, 336 h, time 14 day
[31] = tested on: Candida albicans; assay: Induction of neutrophil-mediated antifungal immunity against Candida albicans SC5314 infected in mouse assessed as increase in animal survival rate at 50 to 100 mg/kg, po administered once a day for 3 days; format: functional, organism-based; settings: dose 50-100 mg/kg, time 3.0 day
[32] = tested on: Candida albicans; assay: Induction of neutrophil-mediated antifungal immunity against Candida albicans SC5314 infected in mouse assessed as reduction in fungal clusters in kidney at 50 to 100 mg/kg, po administered once a day for 3 days by PAS staining based analysis; format: functional, organism-based; settings: dose 50-100 mg/kg, time 3.0 day
[33] = Subacute toxicity in C57BL/6 mouse assessed as change in lung weight at 100 mg/kg, po administered daily for 14 days; format: organism-based; settings: in vivo, 336 h, time 14 day
[34] = tested on: Candida albicans; assay: Induction of neutrophil-mediated antifungal immunity against Candida albicans SC5314 infected in mouse assessed as reduction in fungal burden in kidneys at 50 to 100 mg/kg, po administered once a day for 3 days; format: functional, organism-based; settings: dose 50-100 mg/kg, time 3.0 day
[35] = Acute toxicity in C57BL/6 mouse assessed as change in lung weight at 500 mg/kg, po administered as single dose and measured after 14 days; format: organism-based; settings: in vivo, 336 h, time 14 day
[36] = Therapeutic index, ratio of IC50 for cytotoxicity against mouse neutrophils to IC50 for inhibition of fungal curdlan induced PD-L1 expression in mouse neutrophils; format: toxicity; settings: read-out: Ratio IC50
[37] = Acute toxicity in C57BL/6 mouse assessed as signs of morbidity at 500 mg/kg, po administered as single dose and measured every day for 14 days; format: organism-based; settings: in vivo, 336 h, time 14 day

C[C@@]1(O)CC[C@]23O[C@@]2(C)CC[C@@H]2[C@H](OC(=O)[C@H]2CS(=O)(=O)c2c(Cl)cccc2Cl)[C@@H]13
Activity [1]: Active
Activity [2]: 2.24%
Activity [3]: inactive
AUC(0-t) [4]: 167 ng·h/mL
Cmax [5]: 114 ng/mL
Activity [6]: Non-Toxic
Activity [7]: Active
Activity [8]: Active
Activity [9]: Non-Toxic
Activity [10]: Non-Toxic
MRT last [11]: 15 min
Activity [12]: Non-Toxic
Activity [13]: Active
Activity [14]: Non-Toxic
Activity [15]: Non-Toxic
Activity [16]: Non-Toxic
bioavailability [17]: 45.1%
Activity [18]: Non-Toxic
Activity [19]: Non-Toxic
Activity [20]: Non-Toxic
Activity [21]: 28.5%
inhibition [22]: Active
Activity [23]: Non-Toxic
AUC(0-inf) [24]: 75.4 ng·h/mL
viability at 16 h, 20 µM [25]: 41.4%
selectivity ratio at 16 h [26]: 10.9
Cmax [27]: 175 ng/mL
Activity [28]: Active
half-life [29]: 10.2 min
Activity [30]: Non-Toxic
Activity [31]: Active
Activity [32]: Active
Activity [33]: Non-Toxic
Activity [34]: Active
Activity [35]: Non-Toxic
selectivity ratio [36]: > 85.1
Activity [37]: Non-Toxic

From ChEMBL document CHEMBL5543121, “Drug Repurposing of ACT001 to Discover Novel Promising Sulfide Prodrugs with Improved Safety and Potent Activity for Neutrophil-Mediated Antifungal Immunotherapy” (J Med Chem, 2024)
